Consider 18 compounds from US20250101041A1, “POSITIVE ALLOSTERIC MODULATORS OF THE MUSCARINIC ACETYLCHOLINE RECEPTOR M4” (Vanderbilt University, priority 2022, published 2025).

The test concerns the target T1, human mAChR M4 (Homo sapiens, UniProt P08173).
T1 construct: expressed in transfected cells; host or cells: CHO-K1 (American Type Culture Collection), stably expressing hM4 and Gqi5
T1 sequence (P08173 1-479): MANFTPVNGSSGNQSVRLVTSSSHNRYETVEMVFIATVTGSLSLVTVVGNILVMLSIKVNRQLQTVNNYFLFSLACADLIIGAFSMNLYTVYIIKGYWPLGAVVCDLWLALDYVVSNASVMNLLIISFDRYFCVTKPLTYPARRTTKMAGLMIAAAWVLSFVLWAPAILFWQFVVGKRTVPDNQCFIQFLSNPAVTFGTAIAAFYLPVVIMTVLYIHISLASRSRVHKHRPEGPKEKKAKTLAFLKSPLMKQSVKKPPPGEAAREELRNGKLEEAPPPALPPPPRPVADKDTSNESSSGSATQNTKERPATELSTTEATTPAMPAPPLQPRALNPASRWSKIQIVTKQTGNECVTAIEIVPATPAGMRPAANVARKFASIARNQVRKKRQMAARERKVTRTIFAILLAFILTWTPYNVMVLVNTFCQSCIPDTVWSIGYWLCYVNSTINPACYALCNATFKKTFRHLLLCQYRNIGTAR
Description: mAChR M4 cell-based functional assay: calcium mobilization (Fluo-4, FDSS), potentiation of EC20 acetylcholine response in hM4-Gqi5 CHO-K1 cells. The conditions noted are these: human M4; for Emax at 30 µM: CHO-K1, % ACh maximum at 30 μM; for EC50: potentiation of EC20 acetylcholine response, calcium mobilization. On the procedure: Human and rat M4 cDNAs, along with the chimeric G protein Gqi5, were transfected into Chinese hamster ovary (CHO-K1) cells purchased from the American Type Culture Collection using Lipofectamine2000. hM4-Gqi5 cells were grown in Ham's F-12 medium containing 10% heat-inactivated fetal bovine serum (FBS), 20 mM HEPES, 50 μg/mL G418 sulfate, and 500 μg/mL Hygromycin B. rM4-Gqi5 cells were grown in DMEM containing 10% heat-inactivated FBS, 20 mM HEPES, 400 μg/mL G418 sulfate, and 500 μg/mL Hygromycin B.
For high throughput measurement of agonist-evoked increases in intracellular calcium, CHO-K1 cells stably expressing muscarinic receptors were plated in growth medium lacking G418 and hygromycin at 15,000 cells/20 μL/well in Greiner 384-well black-walled, tissue culture (TC)-treated, clear-bottom plates (VWR). Cells were incubated overnight at 37° C. and 5% CO2. The next day, cells were washed using an ELX 405 (BioTek) with assay buffer; the final volume was then aspirated to 20 μL. Next, 20 μL of a […] of Fluo-4/acetoxymethyl ester (Invitrogen, Carlsbad, CA), prepared as a 2.3 mM stock in DMSO and mixed in a 1:1 ratio with 10% (w/v) Pluronic F-127 and diluted in assay buffer, was added to the wells and the cell plates were incubated for 50 min at 37° C. and 5% CO2. Dye was removed by washing with the ELX 405 and the final volume was aspirated to 20 μL. Compound master plates were formatted in an 11 point concentration-response curve (CRC) format (1:3 dilutions) in 100% DMSO with a starting concentration of 10 mM using a BRAVO liquid handler (Agilent). Test compound CRCs were then transferred to daughter plates (240 nL) using the Echo acoustic plate reformatter (Labcyte, Sunnyvale, CA) and then diluted into assay buffer (40 μL) to a 2× stock using a Thermo Fisher Combi (Thermo Fisher Scientific, Waltham, MA).
Calcium flux was measured using the Functional Drug Screening System (FDSS) 6000 or 7000 (Hamamatsu Corporation, Tokyo, Japan) as an increase in the fluorescent static ratio. Compounds were applied to cells (20 μL, 2X) using the automated system of the FDSS at 2-4 seconds into the protocol and the data were collected at 1 Hz. At 144 seconds, 10 μL of an EC20 concentration of the muscarinic receptor agonist acetylcholine was added (5×), followed by the addition of 12 μL of an […] concentration of acetylcholine at the 230 second time point (5×). Agonist activity was analyzed as a concentration-dependent increase in calcium mobilization upon compound addition. Positive allosteric modulator activity was analyzed as a concentration-dependent increase in the EC20 acetylcholine response. Antagonist activity was analyzed as a concentration-dependent decrease in the EC20 acetylcholine response. Concentration-response curves were generated using a four-parameter logistical equation in XLFit curve fitting software (IDBS, Bridgewater, NJ) for Excel (Microsoft, Redmond, WA) or Prism (GraphPad Software, Inc., San Diego, CA).
Compounds were synthesized as described above. Activity (EC50 and Emax) was determined in the mAChR M4 cell-based functional assay as described above and the data are shown in Table 4. The compound number corresponds to the compound numbers used in Tables 1-3.

What is called Emax is the greatest response seen or fitted, relative to the assay's reference. For orientation: EC50 means the midpoint of the concentration-response curve. Consider `Cc1cc2nc(C(F)F)cc(=O)n2nc1N1CCc2ncc(-c3cnn(C)c3)cc2C1` [Compound 1-35, 2-(Difluoromethyl)-8-methyl-7-(3-(1-methyl-1H-pyrazol-4-yl)-7,8-dihydro-1,6-naphthyridin-6(5H)-yl)-4H-pyrimido[1,2-b]pyridazin-4-one], for which the Emax at 30 µM was found to be 92% and the EC50 stood at 80 nM.
Turning to `Cc1cc2nc(C(F)F)cc(=O)n2nc1N1CCc2ncc(-c3ccnn3C)cc2C1` [Compound 1-36, 2-(difluoromethyl)-8-methyl-7-(3-(1-methyl-1H-pyrazol-5-yl)-7,8-dihydro-1,6-naphthyridin-6(5H)-yl)-4H-pyrimido[1,2-b]pyridazin-4-one], the Emax at 30 µM came out at 96% and the EC50 was 76 nM.
On to `Cc1cc2nccc(=O)n2nc1N1CCc2ncc(-c3ccn(C)c(=O)c3)cc2C1` [Compound 1-37, 8-methyl-7-(3-(1-methyl-2-oxo-1,2-dihydropyridin-4-yl)-7,8-dihydro-1,6-naphthyridin-6(5H)-yl)-4H-pyrimido[1,2-b]pyridazin-4-one], for which the Emax at 30 µM amounted to 83% and the EC50 amounted to 2530 nM.
Consider `COc1cc(-c2cnc3c(c2)CN(c2nn4c(=O)ccnc4cc2C)CC3)ccn1` [Compound 1-38, 7-(3-(2-methoxypyridin-4-yl)-7,8-dihydro-1,6-naphthyridin-6(5H)-yl)-8-methyl-4H-pyrimido[1,2-b]pyridazin-4-one], for which the Emax at 30 µM amounted to 84% and the EC50 was 338 nM.
For the compound `Cc1c(N2CCc3ncc(C(F)(F)F)cc3C2)nn2c(=O)cc(C(F)(F)F)nc2c1C` [Compound 1-39, 8,9-dimethyl-2-(trifluoromethyl)-7-(3-(trifluoromethyl)-7,8-dihydro-1,6-naphthyridin-6(5H)-yl)-4H-pyrimido[1,2-b]pyridazin-4-one], the Emax at 30 µM amounted to 86% and the concentration for a half-maximal effect (EC50) turned out to be 206 nM.
Consider `Cc1c(N2CCc3ncc(C(F)(F)F)cc3C2)nn2c(=O)cc(C(F)F)nc2c1C` [Compound 1-40, 2-(difluoromethyl)-8,9-dimethyl-7-(3-(trifluoromethyl)-7,8-dihydro-1,6-naphthyridin-6(5H)-yl)-4H-pyrimido[1,2-b]pyridazin-4-one], for which the Emax at 30 µM came to 93% and the EC50 is 38 nM.
Take `Cc1cc2nccc(=O)n2nc1N1CCc2ncc(-c3cccc4ncccc34)cc2C1` [Compound 1-41, 8-methyl-7-(3-(quinolin-5-yl)-7,8-dihydro-1,6-naphthyridin-6(5H)-yl)-4H-pyrimido[1,2-b]pyridazin-4-one]: the Emax at 30 µM was 83% and the EC50 amounted to 430 nM.
In the same order, the values of `Cc1cc2nc(C(=O)NCc3cncs3)cc(=O)n2nc1N1CCc2ncc(C(F)(F)F)cc2C1` [Compound 1-42, 8-methyl-4-oxo-N-(thiazol-5-ylmethyl)-7-(3-(trifluoromethyl)-7,8-dihydro-1,6-naphthyridin-6(5H)-yl)-4H-pyrimido[1,2-b]pyridazine-2-carboxamide] are 87% and 200 nM.
For the compound `Cc1cc2nc(C(=O)N3CCC(c4cccnc4)C3)cc(=O)n2nc1N1CCc2ncc(C(F)(F)F)cc2C1` (stereo not drawn) [Compound 1-43, 8-methyl-2-(3-(pyridin-3-yl)pyrrolidine-1-carbonyl)-7-(3-(trifluoromethyl)-7,8-dihydro-1,6-naphthyridin-6(5H)-yl)-4H-pyrimido[1,2-b]pyridazin-4-one], the Emax at 30 µM is 92% and the EC50 came out at 612 nM.
Consider `Cc1cc2nc(C(=O)N3CC4(COC4)C3)cc(=O)n2nc1N1CCc2ncc(C(F)(F)F)cc2C1` [Compound 1-44, 8-methyl-2-(2-oxa-6-azaspiro[3.3]heptane-6-carbonyl)-7-(3-(trifluoromethyl)-7,8-dihydro-1,6-naphthyridin-6(5H)-yl)-4H-pyrimido[1,2-b]pyridazin-4-one], for which the Emax at 30 µM amounted to 92% and the EC50 is 1110 nM.
Turning to `Cc1cc2nc(C(=O)N3CC(C)(F)C3)cc(=O)n2nc1N1CCc2ncc(C(F)(F)F)cc2C1` [Compound 1-45, 2-(3-fluoro-3-methylazetidine-1-carbonyl)-8-methyl-7-(3-(trifluoromethyl)-7,8-dihydro-1,6-naphthyridin-6(5H)-yl)-4H-pyrimido[1,2-b]pyridazin-4-one], the Emax at 30 µM was determined as 100% and the EC50 stood at 167 nM.
For the compound `Cc1cc2nc(C(=O)NC3(C#N)CC3)cc(=O)n2nc1N1CCc2ncc(C(F)(F)F)cc2C1` [Compound 1-46, N-(1-cyanocyclopropyl)-8-methyl-4-oxo-7-(3-(trifluoromethyl)-7,8-dihydro-1,6-naphthyridin-6(5H)-yl)-4H-pyrimido[1,2-b]pyridazine-2-carboxamide], the Emax at 30 µM came out at 99% and the EC50 was found to be 118 nM.
Turning to `COC1CN(C(=O)c2cc(=O)n3nc(N4CCc5ncc(C(F)(F)F)cc5C4)c(C)cc3n2)C1` [Compound 1-47, 2-(3-methoxyazetidine-1-carbonyl)-8-methyl-7-(3-(trifluoromethyl)-7,8-dihydro-1,6-naphthyridin-6(5H)-yl)-4H-pyrimido[1,2-b]pyridazin-4-one], the Emax at 30 µM was determined as 103% and the EC50 turned out to be 144 nM.
As to `Cc1ccc2c(-c3cnc4c(c3)CN(c3nn5c(=O)ccnc5cc3C)CC4)cccc2n1` [Compound 1-48, 8-methyl-7-(3-(2-methylquinolin-5-yl)-7,8-dihydro-1,6-naphthyridin-6(5H)-yl)-4H-pyrimido[1,2-b]pyridazin-4-one], the Emax at 30 µM was found to be 72% and the EC50 turned out to be 321 nM.
For `Cc1cc2nccc(=O)n2nc1N1CCc2ncc(-c3ccc(=O)n(C)c3)cc2C1` [Compound 1-49, 8-methyl-7-(3-(1-methyl-6-oxo-1,6-dihydropyridin-3-yl)-7,8-dihydro-1,6-naphthyridin-6(5H)-yl)-4H-pyrimido[1,2-b]pyridazin-4-one], the Emax at 30 µM was 98% and the EC50 was determined as 2340 nM.
In the same order, the values of `COc1cnccc1-c1cnc2c(c1)CN(c1nn3c(=O)ccnc3cc1C)CC2` [Compound 1-50, 7-(3-(3-methoxypyridin-4-yl)-7,8-dihydro-1,6-naphthyridin-6(5H)-yl)-8-methyl-4H-pyrimido[1,2-b]pyridazin-4-one] are 84% and 685 nM.
Consider `COc1cc(-c2cnc3c(c2)CN(c2nn4c(=O)ccnc4cc2C)CC3)ccc1F` [Compound 1-51, 7-(3-(4-fluoro-3-methoxyphenyl)-7,8-dihydro-1,6-naphthyridin-6(5H)-yl)-8-methyl-4H-pyrimido[1,2-b]pyridazin-4-one], for which the Emax at 30 µM came to 85% and the EC50 turned out to be 293 nM.
Turning to `COc1cncc(-c2cnc3c(c2)CN(c2nn4c(=O)ccnc4cc2C)CC3)c1` [Compound 1-52, 7-(3-(5-methoxypyridin-3-yl)-7,8-dihydro-1,6-naphthyridin-6(5H)-yl)-8-methyl-4H-pyrimido[1,2-b]pyridazin-4-one], the Emax at 30 µM is 47% and the EC50 turned out to be 232 nM.
